According to ChEMBL document CHEMBL1909046, “DrugMatrix in vitro pharmacology data”:

Columns and labels:
[1] = DRUGMATRIX: Glutamate, Kainate radioligand binding (ligand: [3H] Kainic acid); assay type: cell membranes, Rattus norvegicus, Wistar, Brain, Membrane; details: Not Active = under 50% inhibition at 10 µM
[2] = biological target: Sodium-dependent noradrenaline transporter (Homo sapiens, UniProt P23975); experiment: DRUGMATRIX: Norepinephrine Transporter radioligand binding (ligand: [125I] RTI-55); assay type: cell membranes, MDCK, Membrane; details: Not Active = under 50% inhibition at 10 µM
Sodium-dependent noradrenaline transporter, sequence (P23975 whole entry): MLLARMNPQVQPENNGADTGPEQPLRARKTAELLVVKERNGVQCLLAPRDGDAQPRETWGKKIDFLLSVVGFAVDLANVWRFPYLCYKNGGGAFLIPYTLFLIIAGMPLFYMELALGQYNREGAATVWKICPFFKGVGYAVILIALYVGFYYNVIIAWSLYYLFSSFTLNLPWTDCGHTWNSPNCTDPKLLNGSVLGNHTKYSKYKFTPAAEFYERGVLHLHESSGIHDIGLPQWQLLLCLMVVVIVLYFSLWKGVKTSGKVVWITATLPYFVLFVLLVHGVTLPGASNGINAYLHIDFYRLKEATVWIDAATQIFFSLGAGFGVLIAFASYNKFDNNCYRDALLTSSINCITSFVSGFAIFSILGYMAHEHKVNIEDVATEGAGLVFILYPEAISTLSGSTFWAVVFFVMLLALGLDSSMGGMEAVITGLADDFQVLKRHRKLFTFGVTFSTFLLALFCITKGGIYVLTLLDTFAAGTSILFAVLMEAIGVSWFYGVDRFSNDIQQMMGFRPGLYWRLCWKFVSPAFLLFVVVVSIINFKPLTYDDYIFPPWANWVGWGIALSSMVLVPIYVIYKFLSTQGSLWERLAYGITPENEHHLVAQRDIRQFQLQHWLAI

[3] = biological target: T1, C-X-C chemokine receptor type 1 (Homo sapiens, UniProt P25024); also: in other assays of this panel Not Active means under 50% inhibition at 10 µM
T1 sequence (P25024 whole entry): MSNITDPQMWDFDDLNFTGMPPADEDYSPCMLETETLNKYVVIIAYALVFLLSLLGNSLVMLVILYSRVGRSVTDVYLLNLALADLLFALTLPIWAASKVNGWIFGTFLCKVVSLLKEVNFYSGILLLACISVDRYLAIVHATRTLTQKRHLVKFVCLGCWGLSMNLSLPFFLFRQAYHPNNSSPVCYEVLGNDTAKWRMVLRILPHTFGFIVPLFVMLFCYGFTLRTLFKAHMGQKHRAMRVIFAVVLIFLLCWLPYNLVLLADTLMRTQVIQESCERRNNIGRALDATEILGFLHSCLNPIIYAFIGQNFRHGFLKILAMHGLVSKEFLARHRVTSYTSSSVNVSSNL

Histamine H2 receptor = Histamine H2 receptor (Homo sapiens, UniProt P25021); assay type: cell membranes, CHO-K1, Membrane; also: in other assays of this panel Not Active means under 50% inhibition at 10 µM
Histamine H2 receptor, sequence (P25021 whole entry): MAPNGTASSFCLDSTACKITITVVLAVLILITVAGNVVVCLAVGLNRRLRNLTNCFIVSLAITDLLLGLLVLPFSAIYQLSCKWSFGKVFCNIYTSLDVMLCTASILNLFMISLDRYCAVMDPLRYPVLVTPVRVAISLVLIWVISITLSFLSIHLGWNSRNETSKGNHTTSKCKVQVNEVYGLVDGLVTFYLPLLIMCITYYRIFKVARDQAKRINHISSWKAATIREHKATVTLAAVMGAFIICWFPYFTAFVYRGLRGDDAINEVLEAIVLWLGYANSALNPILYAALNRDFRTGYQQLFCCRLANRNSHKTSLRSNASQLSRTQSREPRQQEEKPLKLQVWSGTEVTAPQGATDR

[4] = DRUGMATRIX: Leukotriene, BLT (LTB4) radioligand binding (ligand: [3H]LTB4); assay type: cell membranes, Membrane; details: u-937; Not Active = under 50% inhibition at 10 µM
[5] = biological target: Kappa-type opioid receptor (Homo sapiens, UniProt P41145); experiment: DRUGMATRIX: Opiate kappa (OP2, KOP) radioligand binding (ligand: [3H] Diprenorphine); assay type: cell membranes, HEK293, Membrane; details: Not Active = under 50% inhibition at 10 µM
Kappa-type opioid receptor, sequence (P41145 whole entry): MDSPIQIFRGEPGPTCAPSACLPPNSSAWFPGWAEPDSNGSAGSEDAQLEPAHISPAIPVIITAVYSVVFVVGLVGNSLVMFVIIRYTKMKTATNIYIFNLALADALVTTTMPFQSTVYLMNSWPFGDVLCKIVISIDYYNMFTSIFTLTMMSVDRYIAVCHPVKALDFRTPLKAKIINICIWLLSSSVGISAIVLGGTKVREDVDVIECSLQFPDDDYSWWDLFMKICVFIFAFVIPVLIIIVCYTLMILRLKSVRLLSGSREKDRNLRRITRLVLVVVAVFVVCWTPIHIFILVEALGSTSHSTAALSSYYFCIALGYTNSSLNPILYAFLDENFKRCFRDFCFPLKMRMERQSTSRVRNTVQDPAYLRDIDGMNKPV

Row | Compound | IC50 [1] | Ki [1] | IC50 ([2]; mdck) | Ki ([2]; mdck) | IC50 [3] | Ki [3] | IC50 (Histamine H2 receptor; cho-k1) | Ki (Histamine H2 receptor; cho-k1) | IC50 [4] | Ki [4] | IC50 ([5]; hek293) | IC50 ([2]; read-out: IC50) [nM] | Ki ([2]; read-out: Ki) [nM] | Ki [5] [nM] | IC50 ([5]; read-out: IC50) [nM] | IC50 (Histamine H2 receptor; read-out: IC50) [nM] | Ki (Histamine H2 receptor; read-out: Ki) [nM] | IC50 ([2]; mdck, read-out: IC50) [nM] | Ki ([2]; mdck, read-out: Ki) [nM]
1 | STANNOUS FLUORIDE | Not Active | Not Active | Not Active | Not Active | Not Active | Not Active | Not Active | Not Active | Not Active | Not Active |  |  |  |  |  |  |  |  | 
2 | C[C@@H](O)[C@H]1C(=O)N2C(C(=O)O)=C(S[C@@H]3CN[C@H](C(=O)N(C)C)C3)[C@H](C)[C@H]12 [MEROPENEM] | Not Active | Not Active | Not Active |  | Not Active |  | Not Active |  | Not Active | Not Active | Not Active |  |  |  |  |  |  |  | 
3 | COc1ncnc(NS(=O)(=O)c2ccc(N)cc2)c1OC [SULFADOXINE] | Not Active | Not Active | Not Active |  | Not Active |  | Not Active |  | Not Active | Not Active | Not Active |  |  |  |  |  |  |  | 
4 | CCCc1nn(C)c2c(=O)[nH]c(-c3cc(S(=O)(=O)N4CCN(C)CC4)ccc3OCC)nc12 | Not Active | Not Active | Not Active |  | Not Active |  | Not Active |  | Not Active | Not Active | Not Active |  |  |  |  |  |  |  | 
5 | COc1ccc(/C=C/C(=O)Nc2ccccc2C(=O)O)cc1OC | Not Active | Not Active | Not Active |  | Not Active |  | Not Active |  | Not Active | Not Active | Not Active |  |  |  |  |  |  |  | 
6 | CC1=C(CC(=O)O)c2cc(F)ccc2/C1=C\c1ccc(S(C)(=O)=O)cc1 [EXISULIND] | Not Active | Not Active | Not Active |  | Not Active |  | Not Active |  | Not Active | Not Active | Not Active |  |  |  |  |  |  |  | 
7 | CN1C2CCCC1CC(NC(=O)c1nn(C)c3ccccc13)C2 (configuration not stated) [GRANISETRON] |  |  | Not Active |  | Not Active |  | Not Active |  |  |  | Not Active |  |  |  |  |  |  |  | 
8 | Cc1cn([C@H]2C[C@H](N=[N+]=[N-])[C@@H](CO)O2)c(=O)[nH]c1=O [ZIDOVUDINE] | Not Active | Not Active | Not Active |  | Not Active |  | Not Active |  | Not Active | Not Active | Not Active |  |  |  |  |  |  |  | 
9 | OCCN1CCN(CCCN2c3ccccc3Sc3ccc(C(F)(F)F)cc32)CC1 [FLUPHENAZINE] |  |  |  |  | Not Active |  |  |  |  |  |  | 1960 | 1950 | 9890 | 24700 | 1230 | 1200 |  | 
10 | CC(C)(C)NC[C@H](O)COc1nsnc1N1CCOCC1 [TIMOLOL] | Not Active | Not Active | Not Active |  | Not Active |  | Not Active |  | Not Active | Not Active | Not Active |  |  |  |  |  |  |  | 
11 | Nc1nc2c(c(=O)[nH]1)N(C=O)C(CNc1ccc(C(=O)N[C@@H](CCC(=O)O)C(=O)O)cc1)CN2 (some centres not stated) [LEUCOVORIN] | Not Active | Not Active | Not Active |  | Not Active |  | Not Active |  | Not Active | Not Active | Not Active |  |  |  |  |  |  |  | 
12 | O=c1n(CCCN2CCN(c3cccc(Cl)c3)CC2)nc2ccccn12 [TRAZODONE] |  |  | Not Active |  | Not Active |  | Not Active |  |  |  | Not Active |  |  |  |  |  |  |  | 
13 | COc1cc(C(=O)NS(=O)(=O)c2ccccc2C)ccc1Cc1cn(C)c2ccc(NC(=O)OC3CCCC3)cc12 [ZAFIRLUKAST] | Not Active | Not Active | Not Active |  | Not Active |  | Not Active |  | Not Active | Not Active | Not Active |  |  |  |  |  |  |  | 
14 | CCOC(N)=O | Not Active | Not Active | Not Active |  | Not Active |  | Not Active |  | Not Active | Not Active | Not Active |  |  |  |  |  |  |  | 
15 | CN(CCOc1ccc(CC2SC(=O)NC2=O)cc1)c1ccccn1 (configuration not stated) [ROSIGLITAZONE] | Not Active | Not Active | Not Active |  | Not Active |  | Not Active |  | Not Active | Not Active | Not Active |  |  |  |  |  |  |  | 
16 | CC(=O)O[C@H]1C[C@@H]2CC[C@@H]3[C@H](CC[C@@]4(C)[C@H]3C[C@H]([N+]3(C)CCCCC3)[C@@H]4OC(C)=O)[C@@]2(C)C[C@@H]1N1CCCCC1.[Br-] [VECURONIUM BROMIDE] | Not Active | Not Active | Not Active |  | Not Active |  | Not Active |  | Not Active | Not Active | Not Active |  |  |  |  |  |  |  | 
17 | Nc1ccc(S(=O)(=O)Nc2ncccn2)cc1 [SULFADIAZINE] | Not Active | Not Active | Not Active |  | Not Active |  | Not Active |  | Not Active | Not Active | Not Active |  |  |  |  |  |  |  | 
18 | CCS(=O)(=O)CCn1c([N+](=O)[O-])cnc1C [TINIDAZOLE] | Not Active | Not Active | Not Active |  | Not Active |  | Not Active |  | Not Active | Not Active | Not Active |  |  |  |  |  |  |  | 
19 | Nc1ccc(S(=O)(=O)Nc2nccs2)cc1 [SULFATHIAZOLE] | Not Active | Not Active | Not Active |  | Not Active |  | Not Active |  | Not Active | Not Active | Not Active |  |  |  |  |  |  |  | 
20 | O=C(O)C(Cl)(Cl)Cl [TRICHLOROACETIC ACID] | Not Active | Not Active | Not Active |  | Not Active |  | Not Active |  | Not Active | Not Active |  |  |  |  |  |  |  |  | 
21 | C=C(C)[C@H]1Cc2c(ccc3c2O[C@@H]2COc4cc(OC)c(OC)cc4[C@@H]2C3=O)O1 [ROTENONE] | Not Active | Not Active | Not Active |  | Not Active |  | Not Active |  | Not Active | Not Active |  |  |  |  |  |  |  |  | 
22 | C#CCN(C)[C@H](C)Cc1ccccc1 [SELEGILINE] | Not Active | Not Active | Not Active |  | Not Active |  | Not Active |  | Not Active | Not Active | Not Active |  |  |  |  |  |  |  | 
23 | CC(C)OC(=O)C(C)(C)Oc1ccc(C(=O)c2ccc(Cl)cc2)cc1 [FENOFIBRATE] |  |  |  |  | Not Active |  | Not Active |  |  |  | Not Active |  |  |  |  |  |  |  | 
24 | CCN(CC)CC#CCOC(=O)C(O)(c1ccccc1)C1CCCCC1 (configuration not stated) [OXYBUTYNIN] |  |  |  |  | Not Active |  | Not Active |  |  |  | Not Active |  |  |  |  |  |  |  | 
25 | CC(=O)Nc1nnc(S(N)(=O)=O)s1 [ACETAZOLAMIDE] |  |  | Not Active |  | Not Active |  | Not Active |  |  |  | Not Active |  |  |  |  |  |  |  | 
26 | COc1cc(N)nc2[nH]c(-c3ccc(F)cc3)c(-c3ccncc3)c12 | Not Active | Not Active |  |  | Not Active |  | Not Active |  | Not Active | Not Active | Not Active | 1070 | 1060 |  |  |  |  |  | 
27 | THIMEROSAL | Not Active | Not Active |  |  | Not Active | Not Active | Not Active | Not Active | Not Active | Not Active |  |  |  |  |  |  |  | 931 | 923
28 | CC[C@@H](CO)NC(=O)[C@@H]1C=C2c3cccc4c3c(cn4C)C[C@H]2N(C)C1 [METHYSERGIDE] |  |  | Not Active |  | Not Active |  | Not Active |  |  |  | Not Active |  |  |  |  |  |  |  | 
29 | O=c1[nH]c2ccccc2n1CCCN1CCC(n2c(=O)[nH]c3cc(Cl)ccc32)CC1 [DOMPERIDONE] |  |  |  |  | Not Active |  | Not Active |  |  |  |  |  |  |  |  |  |  |  | 
